Marks after values point to notes of the source that are not given here.
Assays:
NCI-H716 cells = test: Cell viability assay on NCI-H716 (CCK-8); assay type: cell-based; conditions: Homo sapiens, 72 h incubation, read-out: IC50 on inhibition of NCI-H716 cells viability
Experimental: NCI-H716: human cecum colorectal adenocarcinoma cell line, purchased from ATCC (American Type Culture Collection).
Culture medium: RPMI 1640 containing 10% FBS.
NCI-H716 cells were diluted with RPMI-1640 medium containing 10% FBS. 90 μL of the diluted cells were added into each well of a 96-well plate so that each well contained 1×10^4 cells. The cells were subsequently incubated at 37° C., 5% CO2 overnight.
Test compound dissolved in DMSO was diluted to 30, 10, 3.33, 1.11, 0.37, 0.12, 0.04, 0.01 μM with serum free RPMI-1640 medium containing 5% DMSO. Then 10 μL of the diluted compound was added into the above 90 μL cell cultures (final concentration of DMSO in the reaction mixture should be 0.5%), and incubated at 37° C., 5% CO2 for 72 h.
10 μL of CCK-8 solution was added into cells, and incubated at 37° C., 5% CO2 for additional 1 h. The optical density of each well was measured at 450 nm and 630 nm, respectively, by Labsystems Multiskan K3.
[formula] • [OD compound]450-630: the optical density of well containing cells with compound treatment; • [OD cell]450-630: the optical density of wells containing cells without compound treatment; • [OD background]450-630: the optical density of wells containing culture medium only.
IC50: IC50 is calculated based on the inhibition curve fitted by XL-Fit 2.0 software.

NCI-H716 tumor = test: Anti-tumor efficacy in NCI-H716 subcutaneous xenograft model; assay type: in vivo; conditions: three weeks
Experimental: NCI-H716 cell line was purchased from ATCC (CCL-251™) and incubated in the medium of RPM11640 (Rosewell Park Memorial Institute 1640) plus 10% fetal bovine serum (FBS) at 37° C. in a 5% CO2 incubator.
BALB/c athymic male mice (6-8 weeks) were purchased from Shanghai SLAC Laboratory Animal Co. Ltd. The mice were housed under specific pathogen free conditions. They were maintained in a 12 hour light and dark cycle with the temperature at 20-25° C. and humidity of 40%-70% and given free access to Co^60 radiated-sterile diet and autoclaved sterile water. There were four mice in each cage.
Compound A was dissolved in 0.5% CMC-Na, vortexed for 1-3 min, sonicated for 15 min and stored at 4° C. Compound A was formulated at 2.0, 4.0 and 8.0 mg/mL and prepared once a week.
When NCI-H716 cells reached about 80-90% in confluence, they were detached by Trypsin-EDTA and collected after centrifugation, then suspended in serum free-medium. Each mouse was injected subcutaneously in the right lateral flank with 0.2 mL of cells suspension containing 5×10^6 tumor cells with Martrigel (1:1).
When the NCI-H716 tumors grew to around average 300 mm^3, the tumor bearing mice were randomized to vehicle and Compound A treated groups. Compound A in 0.5% CMC-Na as prepared above was orally administered to mice at 20, 40 and 80 mg/kg twice daily for three weeks, and the vehicle group received 0.5% CMC-Na orally twice daily. The dosing volume was 10 mL/kg body weight. Tumor volume (TV) was measured two times per week by caliper for length and width, and calculated using the formula: TV=width^2×length/2.
At the end of the study, tumors were harvested and tumor growth inhibition (TGI) and tumor weight inhibition (IRTW) were calculated by the following equations, where V0 were the data at day 0 (D0) (starting day) and Vt were the data at measurement day t (Dt):
TGI=[1−(Vt−V0)drug treated/(Vt−V0)vehicle]×100%
IRTW(%)=[(TWvehicle−TWtreatment)/TWvehicle]×100%
Student's t-test was used for in comparison with vehicle control. Differences were considered statistically significant at P<0.05.

[1] = 20 mg/kg bid oral, end of study

Cc1cc2cc(Oc3ccnc(Nc4cccc(CS(=O)(=O)NCCN(C)C)c4)n3)ccc2[nH]1 [Compound A, N-(2-(dimethylamino)ethyl)-1-(3-((4-((2-methyl-1H-indol-5-yl)oxy)pyrimidin-2-yl)amino)phenyl)-methanesulfonamide]
IC50 (NCI-H716 cells): 0.159 µM | IRTW (tumor weight inhibition) (NCI-H716 tumor; [1]): 49.9* % | TGI (tumor growth inhibition) (NCI-H716 tumor; [1]): 57.1% | TGI (tumor growth inhibition) (NCI-H716 tumor; 40 mg/kg bid oral, end of study): 73.9% | TGI (tumor growth inhibition) (NCI-H716 tumor; 80 mg/kg bid oral, end of study): 80.0% | clinical signs of toxicity (NCI-H716 tumor; treated mice, 20, 40 and 80 mg/kg bid oral): No clinical signs of toxicity were observed
